Where two headings read alike, the source gives them in different places.
Legend:
[1] = tested on: Common Cutworm (Spodoptera litura); assay: whole plant or invertebrate; conditions: for Mortality (%): 5th or 6th day
Method: They were diluted to a predetermined concentration with water containing a spreader (Shin-Rinoh 0.040) and subjected to the test by themselves or as a mixed liquid.
A leaf segment of cabbage was dipped for about 10 seconds in an insecticidal solution and dried in air. A wet filter paper was laid in a petri dish having a diameter of 9 cm, and the dried leaf segment of cabbage was placed thereon. 10 Second-instar larvae of common cutworm were released therein and after putting a cover, left in a constant temperature chamber at 25° C. with lightening. On the 5th or 6th day after release, dead larvae were counted, and the mortality was calculated by the following equation. Here, the insects that were moribund were counted as dead insects. Mortality (%)={(number of dead insects)/(number of surviving insects+number of dead insects)}×100
Further, the theoretical mortality (%) can be calculated from the colby's formula.

[2] = tested on: Green Peach Aphid (Myzus persicae); assay: Test on Controlling Effects Against Green Peach Aphid (radish leaf dip); type: in vivo; conditions: third day after the dipping; for mortality at 0.05 ppm: other pesticide alone 0.05 ppm; for mortality at 100 ppm: other pesticide alone 100 ppm; for mortality at 200 ppm: other pesticide alone 200 ppm
Method: Japanese radish leaf (cut into about 2 cm×3 cm) was put in a test tube in which water was put, and Larvae of green peach aphid were released on the leaf. […] On the third day after the dipping, dead larvae were counted, and the mortality was calculated from the following equation. Aphids that dropped from leaf or were moribund were included in the number of dead. […] Mortality (%)=(number of dead insects/number of treated insects)×100

[3] = tested on: Green Rice Leafhopper (Nephotettix cincticeps); assay: Test on Controlling Effects Against Green Rice Leafhopper (rice seedling dip); type: in vivo
Text: The root was wrapped with absorbent cotton wet with water, and the rice seedling was put in a test tube.

[4] = Spodoptera litura, in Brassica oleracea, foliar

Compound: CN/C(=N/CC1CCOC1)N[N+](=O)[O-] (stereo not shown) [Dinotefuran, dinotefuran]
- mortality at 3.1 ppm [1, 4]: 0%
- mortality at 6.2 ppm [1, 4]: 0%
- mortality at 12.5 ppm [1, 4]: 13%

Compound: CC(C)([CH2][Sn]([CH2]C(C)(C)c1ccccc1)([CH2]C(C)(C)c1ccccc1)[O][Sn]([CH2]C(C)(C)c1ccccc1)([CH2]C(C)(C)c1ccccc1)[CH2]C(C)(C)c1ccccc1)c1ccccc1 [fenbutatin oxide]
- Mortality (%) ([1]; other pesticide alone 200 ppm): 0%

Compound: C/C=C(\C)C(=O)O[C@H]1C[C@@H](OC(C)=O)[C@@]2(C(=O)OC)CO[C@H]3[C@@H](O)[C@@](C)([C@]45O[C@@]4(C)[C@H]4C[C@@H]5O[C@@H]5OC=C[C@@]54O)[C@H]4[C@]1(CO[C@]4(O)C(=O)OC)[C@@H]32 [Azadirachtin, azadirachtin]
- mortality at 3.1 ppm [1, 4]: 0%
- mortality at 6.2 ppm ([2]; Myzus persicae, foliar, other pesticide alone 6.2 ppm): 0%
- mortality at 12.5 ppm ([2]; Myzus persicae, foliar, other pesticide alone 12.5 ppm): 88%

Compound: CCCCCCCCCCCCC1=C(OC(C)=O)C(=O)c2ccccc2C1=O [Acequinocyl, acequinocyl]
- mortality at 37.5 ppm [1, 4]: 0%
- mortality at 75 ppm [1, 4]: 0%
- mortality at 150 ppm [1, 4]: 0%

Compound: O=[N+]([O-])NC1=NCCN1Cc1ccc(Cl)nc1 [Imidacloprid, imidacloprid]
- mortality at 12.5 ppm [1, 4]: 20%
- mortality at 50 ppm [1, 4]: 75%
- mortality at 0.05 ppm ([2]; Myzus persicae, foliar): 60%
- mortality at 0.1 ppm ([2]; Myzus persicae, foliar, other pesticide alone 0.1 ppm): 67%

Compound: C[C@H]1O[C@H](O[C@H]2[C@H](O)[C@@H](O)[C@@H](O)[C@H](O)[C@@H]2O)[C@@H](N)C[C@@H]1NC(=N)C(=O)O [Kasugamycin, kasugamycin]
- Mortality (%) ([2]; other pesticide alone 11.5 ppm): 0%

Compound: O=C(NC(=O)c1c(F)cccc1F)Nc1cc(Cl)c(Oc2ncc(C(F)(F)F)cc2Cl)c(Cl)c1 [Chlorfluazuron, chlorfluazuron]
- mortality at 0.0025 ppm [1, 4]: 0%
- mortality at 0.005 ppm [1, 4]: 0%
- mortality at 0.01 ppm [1, 4]: 0%

Compound: Cc1c(Cl)cc(-c2ccc(=O)[nH]n2)cc1Cl [Diclomezine, diclomezine]
- mortality at 100 ppm ([2]; Myzus persicae, foliar): 0%
- mortality at 200 ppm ([2]; Myzus persicae, foliar): 0%

Compound: N#C/N=C1\SCCN1Cc1ccc(Cl)nc1 [Thiacloprid, thiacloprid]
- mortality at 50 ppm [1, 4]: 67%

Compound: CC(=O)N1C(=O)N(NCc2cccnc2)Cc2cc(C(F)(C(F)(F)F)C(F)(F)F)ccc21 [Pyrifluquinazon, pyrifluquinazon]
- Mortality (%) ([1]; other pesticide alone 25 ppm): 0%
- Mortality (%) ([1]; other pesticide alone 50 ppm): 0%
- Mortality (%) ([1]; other pesticide alone 100 ppm): 0%

Compound: CCC1(C(=O)N[C@H](C)c2ccc(Cl)cc2)C(C)C1(Cl)Cl (stereo partly shown) [Carpropamid, carpropamid]
- mortality at 100 ppm ([2]; Myzus persicae, foliar): 82%
- mortality at 200 ppm ([2]; Myzus persicae, foliar): 93%

Compound: Nc1nc(N)nc(NC2CC2)n1 [Cyromazine, cyromazine]
- mortality at 25 ppm [1, 4]: 30%
- mortality at 50 ppm [1, 4]: 60%

Compound: C[C@@H](NC(=O)C(C#N)C(C)(C)C)c1ccc(Cl)cc1Cl (stereo partly shown) [Diclocymet, diclocymet]
- mortality at 18.8 ppm [1, 4]: 0%
- mortality at 37.5 ppm [1, 4]: 0%
- mortality at 75 ppm [1, 4]: 0%
- mortality at 0.4 ppm ([3]; Nephotettix cincticeps): 0%
- mortality at 0.8 ppm ([3]; Nephotettix cincticeps): 0%

Compound: spinosad
- Mortality (%) ([1]; other pesticide alone 1.5 ppm): 20%
- Mortality (%) ([1]; other pesticide alone 3.1 ppm): 60%
- Mortality (%) ([1]; other pesticide alone 6.2 ppm): 60%

Compound: CC(C)OC(=O)C(C(=O)OC(C)C)=C1SCCS1 [Isoprothiolane, isoprothiolane]
- mortality at 200 ppm ([3]; Nephotettix cincticeps): 50%

Compound: O=C1CCc2cccc3c2N1CC3 [Pyroquilon, pyroquilon]
- mortality at 50 ppm [1, 4]: 0%
- mortality at 100 ppm [1, 4]: 0%
- mortality at 200 ppm [1, 4]: 0%

Compound: CCc1ccc(C(=O)NN(C(=O)c2cc(C)cc(C)c2)C(C)(C)C)cc1 [Tebufenozide, tebufenozide]
- mortality at 1.5 ppm [1, 4]: 20%

Compound: CC1(C)C(C=C(Cl)Cl)C1C(=O)OC(C#N)c1cccc(Oc2ccccc2)c1 (stereo not shown) [Zeta-cypermethrin, zeta-cypermethrin]
- mortality at 0.4 ppm [1, 4]: 0%
- mortality at 0.8 ppm [1, 4]: 0%
- mortality at 1.5 ppm [1, 4]: 20%

Compound: Cc1ccc(NC(=O)c2snnc2C)cc1Cl [Tiadinil, tiadinil]
- mortality at 50 ppm [1, 4]: 0%
- mortality at 100 ppm [1, 4]: 0%
- mortality at 200 ppm [1, 4]: 0%

Compound: CC(C)(C)c1ccc(CSc2cnn(C(C)(C)C)c(=O)c2Cl)cc1 [Pyridaben, pyridaben]
- mortality at 100 ppm [1, 4]: 0%
- mortality at 200 ppm [1, 4]: 10%

Compound: N#CCNC(=O)c1cnccc1C(F)(F)F [Flonicamid, flonicamid]
- Mortality (%) ([1]; other pesticide alone 25 ppm): 0%
- Mortality (%) ([1]; other pesticide alone 50 ppm): 30%
- Mortality (%) ([1]; other pesticide alone 100 ppm): 0%
- Mortality (%) ([2]; other pesticide alone 0.8 ppm): 38%
- Mortality (%) ([2]; other pesticide alone 1.5 ppm): 70%

Compound: O=C(NC(=O)c1c(F)cccc1F)Nc1ccc(Oc2ccc(C(F)(F)F)cc2Cl)cc1F [Flufenoxuron, flufenoxuron]
- mortality at 0.01 ppm [1, 4]: 0%
- mortality at 0.02 ppm [1, 4]: 20%
- mortality at 0.04 ppm [1, 4]: 20%

Compound: emamectin-benzoate
- Mortality (%) ([1]; other pesticide alone 0.0025 ppm): 0%
- Mortality (%) ([1]; other pesticide alone 0.005 ppm): 10%
- Mortality (%) ([1]; other pesticide alone 0.01 ppm): 30%

Compound: OCC1=C[C@H](N[C@H]2C[C@H](CO)[C@@H](O[C@@H]3O[C@H](CO)[C@@H](O)[C@H](O)[C@H]3O)[C@H](O)[C@H]2O)[C@H](O)[C@@H](O)[C@@H]1O [Validamycin, validamycin]
- mortality at 25 ppm [1, 4]: 0%
- mortality at 50 ppm [1, 4]: 0%

Compound: FC(F)(F)c1ccc(OCCCOc2c(Cl)cc(OCC=C(Cl)Cl)cc2Cl)nc1 [Pyridalyl, pyridalyl]
- mortality at 0.4 ppm [1, 4]: 0%
- mortality at 1.5 ppm [1, 4]: 80%

Compound: CCOCn1c(-c2ccc(Cl)cc2)c(C#N)c(Br)c1C(F)(F)F [Chlorfenapyr, chlorfenapyr]
- mortality at 0.4 ppm [1, 4]: 20%

Compound: C/C(=N\C#N)N(C)Cc1ccc(Cl)nc1 [Acetamiprid, acetamiprid]
- mortality at 12.5 ppm [1, 4]: 0%
- mortality at 25 ppm [1, 4]: 10%

Compound: N#Cc1nn(-c2c(Cl)cc(C(F)(F)F)cc2Cl)c(N)c1[S+]([O-])C(F)(F)F (stereo not shown) [Fipronil, fipronil]
- mortality at 0.4 ppm [1, 4]: 10%
- mortality at 0.8 ppm [1, 4]: 60%

Compound: CN/C(=N\[N+](=O)[O-])NCc1cnc(Cl)s1 [Clothianidin, clothianidin]
- mortality at 12.5 ppm [1, 4]: 90%

Compound: Cc1ccc(/N=C/N(C)/C=N/c2ccc(C)cc2C)c(C)c1 [Amitraz, amitraz]
- mortality at 62.5 ppm [1, 4]: 0%

Compound: CO/C=C(/C(=O)OC)c1ccccc1Oc1cc(Oc2ccccc2C#N)ncn1 [Azoxystrobin, azoxystrobin]
- Mortality (%) ([3]; other pesticide alone 25 ppm, 5th or 6th day): 30%

Compound: CC(C)Oc1cccc(NC(=O)c2ccccc2C(F)(F)F)c1 [Flutolanil, flutolanil]
- mortality at 125 ppm ([2]; Myzus persicae, foliar, other pesticide alone 125 ppm): 0%
- mortality at 250 ppm ([2]; Myzus persicae, foliar, other pesticide alone 250 ppm): 6%

Compound: O=C(NC(=O)c1c(F)cccc1F)Nc1cc(Cl)c(OC(F)(F)C(F)C(F)(F)F)cc1Cl (stereo not shown) [Lufenuron, lufenuron]
- mortality at 0.0125 ppm [1, 4]: 70%

Compound: CCOP(=O)(SC(C)CC)N1CCSC1=O (stereo not shown) [Fosthiazate, fosthiazate]
- mortality at 25 ppm [1, 4]: 88%

Compound: O=C1OCc2c(Cl)c(Cl)c(Cl)c(Cl)c21 [Fthalide, fthalide]
- mortality at 50 ppm [1, 4]: 0%
- mortality at 100 ppm [1, 4]: 0%
- mortality at 200 ppm [1, 4]: 0%
- mortality at 50 ppm ([3]; Nephotettix cincticeps, other pesticide alone 50 ppm, 5th or 6th day): 0%
- mortality at 100 ppm ([3]; Nephotettix cincticeps, other pesticide alone 100 ppm, 5th or 6th day): 0%
- mortality at 200 ppm ([3]; Nephotettix cincticeps, other pesticide alone 200 ppm, 5th or 6th day, read-out: Mortality (%)): 0%

Compound: Cc1c(COC(=O)[C@@H]2[C@H](/C=C(\Cl)C(F)(F)F)C2(C)C)cccc1-c1ccccc1 (racemic) [Bifenthrin, bifenthrin]
- mortality at 0.4 ppm [1, 4]: 0%
- mortality at 0.8 ppm [1, 4]: 40%
- mortality at 0.025 ppm ([2]; Myzus persicae, foliar, other pesticide alone 0.025 ppm): 0%
- mortality at 0.05 ppm ([2]; Myzus persicae, foliar): 4%

Compound: C#CCOS(=O)OC1CCCCC1Oc1ccc(C(C)(C)C)cc1 (stereo not shown) [Propargite, propargite]
- mortality at 50 ppm [1, 4]: 0%
- mortality at 100 ppm [1, 4]: 0%
- mortality at 200 ppm [1, 4]: 0%

Compound: O=C(Nc1ccccc1)N(Cc1ccc(Cl)cc1)C1CCCC1 [Pencycuron, pencycuron]
- mortality at 125 ppm [1, 4]: 0%

Compound: Cc1cccc2sc3nncn3c12 [Tricyclazole, tricyclazole]
- mortality at 100 ppm ([2]; Myzus persicae, foliar): 13%
- mortality at 200 ppm ([2]; Myzus persicae, foliar): 0%

Compound: CC1(C)C(C=C(Cl)Cl)C1C(=O)OCc1cccc(Oc2ccccc2)c1 (stereo not shown) [Permethrin, permethrin]
- mortality at 3.1 ppm [1, 4]: 0%

Compound: C=CCOC1=NS(=O)(=O)c2ccccc21 [Probenazole, probenazole]
- mortality at 100 ppm ([2]; Myzus persicae, foliar): 0%
- mortality at 200 ppm ([2]; Myzus persicae, foliar): 13%
- mortality at 200 ppm ([3]; Nephotettix cincticeps): 0%

Compound: Cc1ccccc1C(=O)Nc1cccc(OC(C)C)c1 [Mepronil, mepronil]
- mortality at 187.5 ppm ([3]; Nephotettix cincticeps): 0%

Compound: CC(C)=CC1C(C(=O)OCc2cccc(Oc3ccccc3)c2)C1(C)C (stereo not shown) [Phenothrin, phenothrin]
- mortality at 12.5 ppm [1, 4]: 20%
- mortality at 25 ppm [1, 4]: 80%

Compound: CC1(C)[C@H](C(=O)O[C@H](C#N)c2cccc(Oc3ccccc3)c2)[C@@H]1C=C(Br)Br [Deltamethrin, deltamethrin]
- mortality at 0.4 ppm [1, 4]: 30%
